{
  "source": "PubChem BioAssay AID2060891",
  "about": "(Molecular Pharmacology Branch, DTP, NCI, 2025)",
  "test_system": "K98450-129-R-PDC complex spheroid growth, percent test/control",
  "experiment": "Anticancer human tumor K98450-129-R-PDC patient-derived colon adenocarcinoma cell line growth inhibition [RAS]",
  "conditions": "for IC50: curve of first compound; for viability, T/C: stronger effect = lower value",
  "in_short": "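Tumour cells grown as complex spheroids with HUVEC endothelial cells and mesenchymal stem cells, treated with RAS pathway inhibitor combinations. Each agent spans half-log steps from near clinical Cmax, or 10 microM where Cmax is unknown.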",
  "key": {"[1]": {"conditions": "second compound 0.000949 µM, first compound 0.0316 µM"}, "[2]": {"conditions": "second compound 0.000949 µM, first compound 0.1 µM"}, "[3]": {"conditions": "second compound 0.000949 µM, first compound 0.316 µM"}, "[4]": {"conditions": "second compound 0.000949 µM, first compound 1 µM"}, "[5]": {"conditions": "second compound 0.000949 µM, first compound 3.16 µM"}, "[6]": {"conditions": "second compound 0.000949 µM, first compound 10 µM"}, "[7]": {"conditions": "second compound 0.003 µM, first compound 0.0316 µM"}, "[8]": {"conditions": "second compound 0.003 µM, first compound 0.1 µM"}, "[9]": {"conditions": "second compound 0.003 µM, first compound 0.316 µM"}, "[10]": {"conditions": "second compound 0.003 µM, first compound 1 µM"}, "[11]": {"conditions": "second compound 0.003 µM, first compound 3.16 µM"}, "[12]": {"conditions": "second compound 0.003 µM, first compound 10 µM"}, "[13]": {"conditions": "second compound 0.00949 µM, first compound 0.0316 µM"}, "[14]": {"conditions": "second compound 0.00949 µM, first compound 0.1 µM"}, "[15]": {"conditions": "second compound 0.00949 µM, first compound 0.316 µM"}, "[16]": {"conditions": "second compound 0.00949 µM, first compound 1 µM"}, "[17]": {"conditions": "second compound 0.00949 µM, first compound 3.16 µM"}, "[18]": {"conditions": "second compound 0.00949 µM, first compound 10 µM"}, "[19]": {"conditions": "second compound 0.03 µM, first compound 0.0316 µM"}, "[20]": {"conditions": "second compound 0.03 µM, first compound 0.1 µM"}, "[21]": {"conditions": "second compound 0.03 µM, first compound 0.316 µM"}, "[22]": {"conditions": "second compound 0.03 µM, first compound 1 µM"}, "[23]": {"conditions": "second compound 0.03 µM, first compound 3.16 µM"}, "[24]": {"conditions": "second compound 0.03 µM, first compound 10 µM"}, "[25]": {"conditions": "second compound 0.0949 µM, first compound 0.0316 µM"}, "[26]": {"conditions": "second compound 0.0949 µM, first compound 0.1 µM"}, "[27]": {"conditions": "second compound 0.0949 µM, first compound 0.316 µM"}, "[28]": {"conditions": "second compound 0.0949 µM, first compound 1 µM"}, "[29]": {"conditions": "second compound 0.0949 µM, first compound 3.16 µM"}, "[30]": {"conditions": "second compound 0.0949 µM, first compound 10 µM"}, "[31]": {"conditions": "second compound 0.3 µM, first compound 0.0316 µM"}, "[32]": {"conditions": "second compound 0.3 µM, first compound 0.1 µM"}, "[33]": {"conditions": "second compound 0.3 µM, first compound 0.316 µM"}, "[34]": {"conditions": "second compound 0.3 µM, first compound 1 µM"}, "[35]": {"conditions": "second compound 0.3 µM, first compound 3.16 µM"}, "[36]": {"conditions": "second compound 0.3 µM, first compound 10 µM"}},
  "data": [
    {"molecule": "CC1(O)CCCC1n1c(=O)c(C(F)F)cc2cnc(NC3CCN(S(C)(=O)=O)CC3)nc21", "note": "(centres undefined) + CCn1c(-c2cc(N3CCN(C)CC3)cnc2C(C)OC)c2c3cc(ccc31)-c1csc(n1)CC(NC(=O)C1CC1C)C(=O)N1CCCC(N1)C(=O)OCC(C)(C)C2;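 also: spheroids exposed to agents for seven days before the viability readout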;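 as to viability, T/C: luminescence used as a proxy for viable cell amount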", "values": [
      {"measurement": "IC50", "setting": "second compound 0.000949 µM", "value": "> 10000", "unit": "nM"},
      {"measurement": "IC50", "setting": "second compound 0.003 µM", "value": "> 10000", "unit": "nM"},
      {"measurement": "IC50", "setting": "second compound 0.00949 µM", "value": 2340, "unit": "nM"},
      {"measurement": "IC50", "setting": "second compound 0.03 µM", "value": "< 31.6", "unit": "nM"},
      {"measurement": "IC50", "setting": "second compound 0.0949 µM", "value": "< 31.6", "unit": "nM"},
      {"measurement": "IC50", "setting": "second compound 0.3 µM", "value": "< 31.6", "unit": "nM"},
      {"measurement": "viability, T/C", "setting": "[1]", "value": 97.3, "unit": "%"},
      {"measurement": "viability, T/C", "setting": "[2]", "value": 94.3, "unit": "%"},
      {"measurement": "viability, T/C", "setting": "[3]", "value": 95.8, "unit": "%"},
      {"measurement": "viability, T/C", "setting": "[4]", "value": 72, "unit": "%"},
      {"measurement": "viability, T/C", "setting": "[5]", "value": 72.1, "unit": "%"},
      {"measurement": "viability, T/C", "setting": "[6]", "value": 78.4, "unit": "%"},
      {"measurement": "viability, T/C", "setting": "[7]", "value": 81.7, "unit": "%"},
      {"measurement": "viability, T/C", "setting": "[8]", "value": 78.6, "unit": "%"},
      {"measurement": "viability, T/C", "setting": "[9]", "value": 60.3, "unit": "%"},
      {"measurement": "viability, T/C", "setting": "[10]", "value": 74.2, "unit": "%"},
      {"measurement": "viability, T/C", "setting": "[11]", "value": 68.3, "unit": "%"},
      {"measurement": "viability, T/C", "setting": "[12]", "value": 71, "unit": "%"},
      {"measurement": "viability, T/C", "setting": "[13]", "value": 77.1, "unit": "%"},
      {"measurement": "viability, T/C", "setting": "[14]", "value": 69.8, "unit": "%"},
      {"measurement": "viability, T/C", "setting": "[15]", "value": 60.5, "unit": "%"},
      {"measurement": "viability, T/C", "setting": "[16]", "value": 50.9, "unit": "%"},
      {"measurement": "viability, T/C", "setting": "[17]", "value": 50.5, "unit": "%"},
      {"measurement": "viability, T/C", "setting": "[18]", "value": 47.8, "unit": "%"},
      {"measurement": "viability, T/C", "setting": "[19]", "value": 47.9, "unit": "%"},
      {"measurement": "viability, T/C", "setting": "[20]", "value": 46.9, "unit": "%"},
      {"measurement": "viability, T/C", "setting": "[21]", "value": 48.4, "unit": "%"},
      {"measurement": "viability, T/C", "setting": "[22]", "value": 36.6, "unit": "%"},
      {"measurement": "viability, T/C", "setting": "[23]", "value": 35.4, "unit": "%"},
      {"measurement": "viability, T/C", "setting": "[24]", "value": 28.2, "unit": "%"},
      {"measurement": "viability, T/C", "setting": "[25]", "value": 22.6, "unit": "%"},
      {"measurement": "viability, T/C", "setting": "[26]", "value": 22.1, "unit": "%"},
      {"measurement": "viability, T/C", "setting": "[27]", "value": 18.2, "unit": "%"},
      {"measurement": "viability, T/C", "setting": "[28]", "value": 17.9, "unit": "%"},
      {"measurement": "viability, T/C", "setting": "[29]", "value": 21, "unit": "%"},
      {"measurement": "viability, T/C", "setting": "[30]", "value": 17.7, "unit": "%"},
      {"measurement": "viability, T/C", "setting": "[31]", "value": 11.4, "unit": "%"},
      {"measurement": "viability, T/C", "setting": "[32]", "value": 11.9, "unit": "%"},
      {"measurement": "viability, T/C", "setting": "[33]", "value": 12.3, "unit": "%"},
      {"measurement": "viability, T/C", "setting": "[34]", "value": 13.8, "unit": "%"},
      {"measurement": "viability, T/C", "setting": "[35]", "value": 12.7, "unit": "%"},
      {"measurement": "viability, T/C", "setting": "[36]", "value": 11.8, "unit": "%"}
    ]},
    {"molecule": "CCC(CC)c1cc(NC2CCC(N)C2)n2nccc2n1", "note": "(centres undefined) + CCn1c(-c2cc(N3CCN(C)CC3)cnc2C(C)OC)c2c3cc(ccc31)-c1csc(n1)CC(NC(=O)C1CC1C)C(=O)N1CCCC(N1)C(=O)OCC(C)(C)C2", "values": [
      {"measurement": "IC50", "setting": "second compound 0.000949 µM", "value": 4120, "unit": "nM"},
      {"measurement": "IC50", "setting": "second compound 0.003 µM", "value": 3690, "unit": "nM"},
      {"measurement": "IC50", "setting": "second compound 0.00949 µM", "value": 2350, "unit": "nM"},
      {"measurement": "IC50", "setting": "second compound 0.03 µM", "value": 887, "unit": "nM"},
      {"measurement": "IC50", "setting": "second compound 0.0949 µM", "value": "< 31.6", "unit": "nM"},
      {"measurement": "IC50", "setting": "second compound 0.3 µM", "value": "< 31.6", "unit": "nM"},
      {"measurement": "viability, T/C", "setting": "[1]", "value": 97.9, "unit": "%"},
      {"measurement": "viability, T/C", "setting": "[2]", "value": 88, "unit": "%"},
      {"measurement": "viability, T/C", "setting": "[3]", "value": 95.7, "unit": "%"},
      {"measurement": "viability, T/C", "setting": "[4]", "value": 65.1, "unit": "%"},
      {"measurement": "viability, T/C", "setting": "[5]", "value": 68.5, "unit": "%"},
      {"measurement": "viability, T/C", "setting": "[6]", "value": 16.4, "unit": "%"},
      {"measurement": "viability, T/C", "setting": "[7]", "value": 91.7, "unit": "%"},
      {"measurement": "viability, T/C", "setting": "[8]", "value": 83.2, "unit": "%"},
      {"measurement": "viability, T/C", "setting": "[9]", "value": 75.7, "unit": "%"},
      {"measurement": "viability, T/C", "setting": "[10]", "value": 66.3, "unit": "%"},
      {"measurement": "viability, T/C", "setting": "[11]", "value": 63.3, "unit": "%"},
      {"measurement": "viability, T/C", "setting": "[12]", "value": 13.3, "unit": "%"},
      {"measurement": "viability, T/C", "setting": "[13]", "value": 81.2, "unit": "%"},
      {"measurement": "viability, T/C", "setting": "[14]", "value": 60.9, "unit": "%"},
      {"measurement": "viability, T/C", "setting": "[15]", "value": 61, "unit": "%"},
      {"measurement": "viability, T/C", "setting": "[16]", "value": 62.7, "unit": "%"},
      {"measurement": "viability, T/C", "setting": "[17]", "value": 48.6, "unit": "%"},
      {"measurement": "viability, T/C", "setting": "[18]", "value": 12.9, "unit": "%"},
      {"measurement": "viability, T/C", "setting": "[19]", "value": 57.4, "unit": "%"},
      {"measurement": "viability, T/C", "setting": "[20]", "value": 44.2, "unit": "%"},
      {"measurement": "viability, T/C", "setting": "[21]", "value": 51.2, "unit": "%"},
      {"measurement": "viability, T/C", "setting": "[22]", "value": 49.9, "unit": "%"},
      {"measurement": "viability, T/C", "setting": "[23]", "value": 18.6, "unit": "%"},
      {"measurement": "viability, T/C", "setting": "[24]", "value": 12.2, "unit": "%"},
      {"measurement": "viability, T/C", "setting": "[25]", "value": 23.2, "unit": "%"},
      {"measurement": "viability, T/C", "setting": "[26]", "value": 20.8, "unit": "%"},
      {"measurement": "viability, T/C", "setting": "[27]", "value": 20.7, "unit": "%"},
      {"measurement": "viability, T/C", "setting": "[28]", "value": 17, "unit": "%"},
      {"measurement": "viability, T/C", "setting": "[29]", "value": 5.39, "unit": "%"},
      {"measurement": "viability, T/C", "setting": "[30]", "value": 10.7, "unit": "%"},
      {"measurement": "viability, T/C", "setting": "[31]", "value": 12.3, "unit": "%"},
      {"measurement": "viability, T/C", "setting": "[32]", "value": 13, "unit": "%"},
      {"measurement": "viability, T/C", "setting": "[33]", "value": 11.2, "unit": "%"},
      {"measurement": "viability, T/C", "setting": "[34]", "value": 11.6, "unit": "%"},
      {"measurement": "viability, T/C", "setting": "[35]", "value": 3.99, "unit": "%"},
      {"measurement": "viability, T/C", "setting": "[36]", "value": 12.9, "unit": "%"}
    ]}
  ]
}
